# Reference: PMC8955525 (2022)
# Tests used:
# [1] = system: native r(CUG)10 (r10) (RNA, repeat) CUGCUGCUGCUGCUGCUGCUGCUGCUGCUG; assay: UV melting, 260 nm; conditions: 100 mM NaCl, 10 mM sodium phosphate, pH 7.0, 1.5 µM RNA, L/M = 1, Tm 55.8 to 57.4 °C buffer, Tm 57.5 (L/M 0), 58.7 (L/M 1), 60.7 °C (L/M 16)
# [2] = system: FM1 r(CUG)10 (FM1 CUG × 10, r10FAM), annealed (RNA, repeat, fluorescein (fam) covalently incorporated between C13 and U14 (5th CUG repeat, hairpin loop)) CUGCUGCUGCUGCUGCUGCUGCUGCUGCUG; assay: fluorescence melting of internal FAM; conditions: none stated; nuclease-free water; 200 nM RNA; L/M = 1; Tm 52.2 to 54.9 °C; lower Tm at L/M > 1
# [3] = system: FM1 r(CUG)10 (FM1 CUG × 10, r10FAM), annealed (RNA, repeat, fluorescein (fam) covalently incorporated between C13 and U14 (5th CUG repeat, hairpin loop)) CUGCUGCUGCUGCUGCUGCUGCUGCUGCUG; assay: fluorometer fluorescence titration, sigmoidal fit; conditions: none stated; nuclease-free water, 25 °C; 200 nM RNA; apparent; Langmuir fit 671 nM, quadratic fit 247 nM
# [4] = system: FM1 r(CUG)10 (FM1 CUG × 10, r10FAM), annealed (RNA, repeat, fluorescein (fam) covalently incorporated between C13 and U14 (5th CUG repeat, hairpin loop)) CUGCUGCUGCUGCUGCUGCUGCUGCUGCUG; assay: fluorescence microplate titration, sigmoidal fit; conditions: none stated; nuclease-free water, room temperature; 200 nM RNA; apparent
# [5] = system: FM1 r(CUG)10 (FM1 CUG × 10, r10FAM), annealed (RNA, repeat, fluorescein (fam) covalently incorporated between C13 and U14 (5th CUG repeat, hairpin loop)) CUGCUGCUGCUGCUGCUGCUGCUGCUGCUG; assay: UV melting, 260 nm; conditions: 100 mM NaCl; 10 mM sodium phosphate, pH 7.0; 1.5 µM RNA; L/M = 1; Tm 55.8 to 57.4 °C
# [6] = system: native r(CUG)7 (r7) (RNA, repeat) CUGCUGCUGCUGCUGCUGCUG; assay: UV melting, 260 nm; conditions: 100 mM NaCl; 10 mM sodium phosphate, pH 7.0; 1.5 µM RNA; L/M = 1; Tm 59.8 to 64.0 °C
binding [1],ΔTm [2] [°C],Kd [3] [nM],Kd [4] [nM],ΔTm [5],ΔTm [6] [°C],SMILES
yes,2.7,945,928,~ 1.5 °C,4,CN[C@@H]1[C@@H](O)[C@@H](O[C@@H]2[C@@H](O)[C@H](O[C@H]3OC(CN)=CC[C@H]3N)[C@@H](N)C[C@H]2N)OC[C@]1(C)O
–,–,–,1054,–,–,NC[C@@H]1O[C@H](O[C@H]2[C@@H](O)[C@H](O[C@@H]3[C@@H](O)[C@H](N)C[C@H](N)[C@H]3O[C@H]3O[C@H](CN)[C@@H](O)[C@H](O)[C@H]3N)O[C@@H]2CO)[C@H](N)[C@@H](O)[C@@H]1O
–,–,–,1555,–,–,NC[C@H]1O[C@H](O[C@H]2[C@H](O)[C@@H](O[C@H]3O[C@H](CO)[C@@H](O)[C@H](N)[C@H]3O)[C@H](N)C[C@@H]2N)[C@H](O)[C@@H](O)[C@@H]1O
